What was measured:
[1] = test system: N-methyltransferase (NMT); experiment: Standard enzyme assay with purified E. coli-produced NMT, N-methylated product measured by LC-MS; type: biochemical, Ephedra sinica; settings: for acceptance as substrate for N-methylation by NMT (FIG. 3): 1 mM alkaloid substrate, 1 mM SAM, 100 μg/mL purified NMT, 4 h at 37° C., pH 8.5
Experimental: Open reading frames (ORFs) of N-methyltransferase (NMT) enzyme sequences (i.e. SEQ. ID NO: 1 and SEQ. ID NO: 2) were subcloned into Escherichia coli expression vector pET47b (Merck Millipore) in-frame with vector-encoded His-tag for downstream purification purposes. Constructs were transformed into E. coli strains ArcticExpress (Agilent Technologies) or Rosetta (Novagen). Recombinant His-tagged protein production was performed according to standard procedures (Farrow et al. 2013. J. Biol. Chem. 288: 28977) and manufacturer's instructions. Briefly, cultures of E. coli harboring pET47b were grown on an orbital shaker (200 rpm) to log phase in 1 L of LB medium containing gentamicin, streptomycin and kanamycin (Arctic Express) or chloramphenicol and kanamycin (Rosetta). Recombinant His-tagged protein production was initiated by the addition of 1 mM isopropyl β-D-1-thiogalactopyranoside (IPTG). To produce NMT, cultures were grown for 24 h at 15° C.
For purification, bacterial pellets obtained following induction/incubation were resuspened in 10 mL of resuspension buffer (50 mM Tris pH 8.5, 10% v/v glycerol, 1% w/v polyvinylpyrrolidone, 5 mM dithiothreitol) and lysed at 4° C. using a French pressure cell (1,000 psi). After centrifugation (10,000 g) to remove insoluble debris, the supernatant was incubated on ice with buffer-equilibrated Talon resin (Clontech) on an orbital shaker (60 rpm) for 60 minutes. The protein-charged resin was washed twice with 10 mL of cold resuspension buffer containing 2.5 mM imidazole, and proteins were eluted stepwise with increasing concentrations (10 to 200 mM) of imidazole in resuspension buffer. Total proteins from a 40 mM imidazole elution were desalted using a PD-10 column (EMD Millipore) and resuspension buffer free of imidazole. Recombinant proteins were analyzed by SDS-PAGE to assess yield and purity, and immunoblot analyses were conducted using α-His primary antibodies and goat-anti-mouse, horseradish peroxidase-conjugated secondary antibodies. Total protein concentration was determined using BCA Protein Assay kit (Thermo Scientific). Calculated protein concentrations were adjusted on gel densitometry. […] Specifically, standard enzyme reactions consisted of 50 mM Tris pH 8.5, 10 v/v glycerol, 1% w/v polyvinylpyrrolidone, 5 mM dithiothreitol, 1 mM alkaloid substrate, 1 mM SAM (S-adenosylmethionine) and 100 μg/mL purified NMT protein in a total of 100 μl reaction volume. Reactions were incubated for 4 h at 37° C., and stopped via 1) basification of the reaction mixture to pH 10-11, and 2) immediate addition of 1 mL ethyl acetate. Quenched reactions were vortexed and centrifuged (10,000 rpm) to separate organic and aqueous phases, and organic phase was carefully drawn off, placed in a new tube, reduced to dryness under vacuum, and resuspended in 500 μL of Solvent A (10 mM ammonium acetate pH 5.5, 5% v/v methanol). The resuspensions were centrifuged (10,000 rpm) prior to analysis by LC-MS to remove insoluble matter.
Ten μL sample was injected for LC-MS analysis using an Agilent 6410B triple quadrupole mass analyzer equipped with a 1200 Agilent HPCL system. Samples were fractionated using a previously described LC-ESI-MS/MS method [J. Chromatography B. 879:727, 2011] employing a Prodigy Phenyl-3 column (Phenomenex) which separated enantiomeric pairs (e.g. pseudoephedrine/ephedrine). Briefly, the HPLC gradient began as 95% Solvent A (Solvent B=100% methanol) for 1 minute at a flow rate of 0.2 ml/min, and decreased to 30% Solvent A/70% Solvent B over 19 minutes, then graded to 10% Solvent A/[…] over 0.5 minutes, then immediately returned to 100% Solvent A and equilibrated for 5 minutes. […] ESI and MS conditions were essentially the same as described [J. Chromatography B. 879:727, 2011].

[2] = test system: plant-derived NMT; experiment: NMT activity assay with Ephedra sinica plant tissue extract; type: biochemical; settings: standard assay conditions, 4 hour assay, Ephedra sinica-derived protein
Experimental: For purification, bacterial pellets obtained following induction/incubation were resuspened in 10 mL of resuspension buffer (50 mM Tris pH 8.5, 10% v/v glycerol, 1% w/v polyvinylpyrrolidone, 5 mM dithiothreitol) and lysed at 4° C. using a French pressure cell (1,000 psi). After centrifugation (10,000 g) to remove insoluble debris, the supernatant was incubated on ice with buffer-equilibrated Talon resin (Clontech) on an orbital shaker (60 rpm) for 60 minutes. The protein-charged resin was washed twice with 10 mL of cold resuspension buffer containing 2.5 mM imidazole, and proteins were eluted stepwise with increasing concentrations (10 to 200 mM) of imidazole in resuspension buffer. Total proteins from a 40 mM imidazole elution were desalted using a PD-10 column (EMD Millipore) and resuspension buffer free of imidazole. Recombinant proteins were analyzed by SDS-PAGE to assess yield and purity, and immunoblot analyses were conducted using α-His primary antibodies and goat-anti-mouse, horseradish peroxidase-conjugated secondary antibodies. Total protein concentration was determined using BCA Protein Assay kit (Thermo Scientific). Calculated protein concentrations were adjusted on gel densitometry. Standard enzyme assays included approximately 100 μg/mL purified NMT protein, which was determined to be in the linear range of catalyst performance. […]

Row | SMILES | acceptance as substrate for N-methylation by NMT (FIG. 3) [1] | effectiveness as NMT substrate, absolute product quantification (FIG. 4) ([1]; standard assay conditions, product quantified with standard curves as ng alkaloid per μg protein per hour) | conversion by plant-derived extract [2]
1 | CNCC(O)c1ccc(O)cc1 (stereo not shown) [Synephrine, synephrine] | accepted as substrates | – | –
2 | C[C@H](N)C(=O)c1ccccc1 [cathinone] | acting as substrate | – | –
3 | CN[C@@H](C)[C@H](O)c1ccccc1 [ephedrine] | accepts | somewhat lower | –
4 | CC(N)C(O)c1ccccc1 (stereo not shown) [norephedrine] | – | – | yielding ephedrine at comparable levels to E. coli-produced NMT
5 | NCC(O)c1ccc(O)cc1 (stereo not shown) [octopamine] | accepted as substrates | – | –
6 | CN[C@@H](C)[C@@H](O)c1ccccc1 [pseudoephedrine] | accepts | – | –
